According to US20230000870A1, “METHODS OF TREATING CANCER IN BIOMARKER-IDENTIFIED PATIENTS WITH INHIBITORS OF CYCLIN-DEPENDENT KINASE 7 (CDK7)” (Syros Pharmaceuticals, Inc., priority 2019, published 2023):

Legend:
[1] = target: CDK7/Cyclin H/MAT1 complex (Homo sapiens, UniProt P50613); experiment: CDK7 kinase inhibition assay (Caliper/LabChip EZ Reader); format: biochemical; conditions: CDK7/Cyclin H/MAT1 6 nM, ATP 2 mM, 35 min at 27° C.
In short: (§1)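 Incubation times were set for ~20% (±5%) peptide phosphorylation by uninhibited enzyme: CDK7 35 min, CDK2 35 min (0.5 nM complex, 2 μM 5-FAM-CDK7tide, 2 mM MgCl2), CDK12 3 hr (50 nM, 2 μM 5-FAM-CDK9tide, 2 mM MgCl2), CDK9 15 min (8 nM, 2 μM 5-FAM-CDK9tide, 10 mM MgCl2). Read-out on LabChip EZ Reader, 27° C.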

[2] = test system: HCC70 cells; experiment: Inhibition of proliferation of HCC70 cells (CyQUANT Direct, 72 hour); format: cell-based, human; conditions: read-out: Inhibition of Proliferation of HCC70 Cells (calculated IC50)
Description: HCC70 cells: HCC70 cells are a cell line derived from human triple negative breast cancer. Representative compounds of the invention were tested at different concentrations (from 4 μM to […]; 0.5 log serial dilutions) for their ability to inhibit the proliferation of HCC70 cells. Known CDK inhibitors dinaciclib or N-((1S,3R)-3-((5-chloro-4-(1H-indol-3-yl) pyrimidin-2-yl)amino)cyclohexyl)-5-((E)-4-(dimethylamino)but-2-enamido)picolinamide and triptolide were used as positive controls. Cells were grown in ATCC-formulated RPMI-1640 Medium (ATCC 30-2001)+10% FBS. The cells were cultured at 37° C. in a humidified chamber in the presence of 5% CO2. Proliferation assays were conducted over a 72 hour time period. CyQUANT® Direct Cell Proliferation Assay (Life Technologies, Chicago, Ill. USA) was used to assess the anti-proliferative effects of the compounds following manufacturer's directions and utilizing the reagents supplied with the CyQUANT® Direct Cell kit.

[3] = target: CDK2/Cyclin E1 complex (Homo sapiens, UniProt P24941); experiment: CDK2 kinase inhibition assay (Caliper/LabChip EZ Reader); format: biochemical; conditions: CDK2/Cyclin E1 0.5 nM, ATP 2 mM, 35 min at 27° C.
In short: as §1

[4] = target: CDK9/Cyclin T1 complex (Homo sapiens, UniProt P50750); experiment: CDK9 kinase inhibition assay (Caliper/LabChip EZ Reader); format: biochemical; conditions: CDK9/Cyclin T1 8 nM, ATP 2 mM, 15 min at 27° C.
In short: as §1

[5] = target: T1, CDK12 (aa686-1082)/Cyclin K complex (Homo sapiens, UniProt Q9NYV4); experiment: CDK12 kinase inhibition assay (Caliper/LabChip EZ Reader); format: biochemical; conditions: CDK12 (aa686-1082)/Cyclin K 50 nM, ATP 2 mM, 3 hr at 27° C.
T1 construct: CDK12 (aa686-1082)/Cyclin K complex
In short: as §1

Chain of CDK7/Cyclin H/MAT1 complex (P50613 whole entry): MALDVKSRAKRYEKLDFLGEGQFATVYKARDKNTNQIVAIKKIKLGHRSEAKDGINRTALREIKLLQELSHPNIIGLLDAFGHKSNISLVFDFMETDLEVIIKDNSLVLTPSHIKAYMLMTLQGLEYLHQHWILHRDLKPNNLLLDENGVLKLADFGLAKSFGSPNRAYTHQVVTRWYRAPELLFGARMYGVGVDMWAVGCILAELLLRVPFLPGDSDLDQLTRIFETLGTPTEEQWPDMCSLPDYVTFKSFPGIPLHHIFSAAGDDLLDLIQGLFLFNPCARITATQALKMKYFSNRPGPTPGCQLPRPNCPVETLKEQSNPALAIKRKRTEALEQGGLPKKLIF
Chain of CDK7/Cyclin H/MAT1 complex (P51946 whole entry partner): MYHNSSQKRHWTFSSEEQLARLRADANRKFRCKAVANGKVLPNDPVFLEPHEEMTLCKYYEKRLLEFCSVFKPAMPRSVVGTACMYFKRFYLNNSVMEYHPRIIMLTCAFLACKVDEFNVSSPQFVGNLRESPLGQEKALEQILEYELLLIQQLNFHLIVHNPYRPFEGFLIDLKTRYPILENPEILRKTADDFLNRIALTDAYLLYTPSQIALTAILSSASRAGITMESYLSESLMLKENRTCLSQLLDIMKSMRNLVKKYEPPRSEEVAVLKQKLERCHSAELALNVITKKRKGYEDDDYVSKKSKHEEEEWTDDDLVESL
Chain of CDK7/Cyclin H/MAT1 complex (P51948 whole entry partner): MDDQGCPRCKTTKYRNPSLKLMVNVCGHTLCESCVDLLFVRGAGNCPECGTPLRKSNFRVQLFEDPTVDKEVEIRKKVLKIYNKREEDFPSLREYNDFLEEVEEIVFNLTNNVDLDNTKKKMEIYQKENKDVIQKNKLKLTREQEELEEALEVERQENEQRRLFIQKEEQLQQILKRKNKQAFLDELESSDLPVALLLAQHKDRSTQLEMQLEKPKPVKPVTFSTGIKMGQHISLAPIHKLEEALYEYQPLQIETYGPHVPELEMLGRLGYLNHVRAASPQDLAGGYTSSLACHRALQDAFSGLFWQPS
T1 sequence (Q9NYV4 686-1082): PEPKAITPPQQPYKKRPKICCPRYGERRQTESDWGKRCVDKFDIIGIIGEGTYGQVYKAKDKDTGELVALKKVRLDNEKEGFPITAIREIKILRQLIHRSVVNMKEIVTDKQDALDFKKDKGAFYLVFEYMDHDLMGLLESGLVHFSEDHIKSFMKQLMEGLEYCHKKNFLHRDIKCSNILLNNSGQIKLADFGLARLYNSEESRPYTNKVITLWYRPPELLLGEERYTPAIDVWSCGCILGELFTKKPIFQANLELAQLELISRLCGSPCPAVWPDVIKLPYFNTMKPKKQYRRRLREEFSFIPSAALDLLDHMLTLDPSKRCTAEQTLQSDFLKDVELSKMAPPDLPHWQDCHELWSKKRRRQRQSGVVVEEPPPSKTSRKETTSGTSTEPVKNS
T1 sequence (O75909 whole entry partner, the tested form may be a part): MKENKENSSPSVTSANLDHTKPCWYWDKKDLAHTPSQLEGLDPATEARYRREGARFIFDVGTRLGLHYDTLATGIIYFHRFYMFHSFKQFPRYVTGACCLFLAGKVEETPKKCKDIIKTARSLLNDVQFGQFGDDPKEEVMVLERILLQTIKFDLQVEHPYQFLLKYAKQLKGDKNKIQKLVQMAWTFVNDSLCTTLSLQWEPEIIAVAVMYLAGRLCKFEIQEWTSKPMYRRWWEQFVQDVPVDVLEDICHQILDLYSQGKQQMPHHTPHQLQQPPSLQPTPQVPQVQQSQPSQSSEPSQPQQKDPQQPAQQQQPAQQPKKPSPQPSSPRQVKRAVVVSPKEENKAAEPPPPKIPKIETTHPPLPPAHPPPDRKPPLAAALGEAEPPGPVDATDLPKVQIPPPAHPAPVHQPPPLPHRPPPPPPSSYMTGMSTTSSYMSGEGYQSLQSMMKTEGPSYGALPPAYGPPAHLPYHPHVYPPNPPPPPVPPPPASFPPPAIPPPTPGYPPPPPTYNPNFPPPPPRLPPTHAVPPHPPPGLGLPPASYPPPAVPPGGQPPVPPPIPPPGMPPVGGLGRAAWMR
Chain of CDK9/Cyclin T1 complex (P50750 whole entry): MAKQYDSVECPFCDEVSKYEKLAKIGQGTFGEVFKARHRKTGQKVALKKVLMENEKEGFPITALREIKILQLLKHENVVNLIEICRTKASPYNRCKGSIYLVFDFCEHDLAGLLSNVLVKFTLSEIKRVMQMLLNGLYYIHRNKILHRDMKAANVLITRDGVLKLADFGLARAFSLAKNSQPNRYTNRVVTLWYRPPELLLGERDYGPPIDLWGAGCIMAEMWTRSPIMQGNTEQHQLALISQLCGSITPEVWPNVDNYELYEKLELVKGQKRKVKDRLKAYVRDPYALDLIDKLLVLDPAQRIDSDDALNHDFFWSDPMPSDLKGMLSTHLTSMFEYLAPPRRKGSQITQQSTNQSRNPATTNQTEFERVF
Chain of CDK9/Cyclin T1 complex (O60563 whole entry partner): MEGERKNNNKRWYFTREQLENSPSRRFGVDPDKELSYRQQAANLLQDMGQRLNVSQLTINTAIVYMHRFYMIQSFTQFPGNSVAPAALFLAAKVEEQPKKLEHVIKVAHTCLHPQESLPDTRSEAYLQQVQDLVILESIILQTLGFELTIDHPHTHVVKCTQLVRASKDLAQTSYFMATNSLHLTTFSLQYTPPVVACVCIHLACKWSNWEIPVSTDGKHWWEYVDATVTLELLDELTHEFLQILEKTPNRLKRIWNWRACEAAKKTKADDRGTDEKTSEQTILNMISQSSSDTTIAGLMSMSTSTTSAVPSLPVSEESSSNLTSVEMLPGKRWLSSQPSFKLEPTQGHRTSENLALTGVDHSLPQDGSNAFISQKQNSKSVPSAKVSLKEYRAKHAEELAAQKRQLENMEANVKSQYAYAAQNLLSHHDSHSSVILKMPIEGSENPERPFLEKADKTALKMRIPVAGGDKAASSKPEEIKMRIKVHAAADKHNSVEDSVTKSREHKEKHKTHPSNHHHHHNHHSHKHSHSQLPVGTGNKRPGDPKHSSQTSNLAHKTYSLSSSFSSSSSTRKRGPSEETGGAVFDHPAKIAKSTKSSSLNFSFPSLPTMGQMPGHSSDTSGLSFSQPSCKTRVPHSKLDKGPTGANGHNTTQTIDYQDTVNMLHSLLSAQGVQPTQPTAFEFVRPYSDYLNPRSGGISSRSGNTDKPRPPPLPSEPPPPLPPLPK

Row | Structure (SMILES) | IC50 [1] | IC50 [2] | IC50 [3] | IC50 [4] | IC50 [5]
1 | CC(=O)NCc1cccc(-c2ccc3c(-c4nc(NC5CCCNC5)ncc4C(F)(F)F)c[nH]c3c2)c1 (stereo not drawn) [Compound 338] | 20 to 200 nM | 100 to 1000 nM | 200 to 5000 nM | 200 to 5000 nM | 200 to 5000 nM
2 | FC(F)(F)c1cnc(NC2CCCNC2)nc1-c1c[nH]c2cc(-c3ccnc4ccccc34)ccc12 (stereo not drawn) [Compound 339] | 20 to 200 nM | 1000 to 5000 nM | ≥ 5000 nM | ≥ 5000 nM | 200 to 5000 nM
3 | COC1CCN(C(=O)c2ccc3c(-c4nc(NC5CCCNC5)ncc4C(F)(F)F)c[nH]c3c2)C1 (stereo not drawn) [Compound 281] | < 20 nM | 100 to 1000 nM | 200 to 5000 nM | 200 to 5000 nM | 200 to 5000 nM
4 | CP(C)(=O)c1ccc2c(-c3nc(NC4CCCNC4)ncc3C(F)(F)F)c[nH]c2c1 (stereo not drawn) [Compound 354] | 20 to 200 nM | 1000 to 5000 nM | ≥ 5000 nM | ≥ 5000 nM | 200 to 5000 nM
5 | CP(C)(=O)c1cccc2c(-c3nc(NC4CCCNC4)ncc3C(F)(F)F)c[nH]c12 (stereo not drawn) [Compound 353] | < 20 nM | < 100 nM | 200 to 5000 nM | ≥ 5000 nM | 200 to 5000 nM
6 | Cc1ccncc1-c1ccc2c(-c3nc(NC4CCCNC4)ncc3C(F)(F)F)c[nH]c2c1 (stereo not drawn) [Compound 336] | < 20 nM | < 100 nM | 200 to 5000 nM | 200 to 5000 nM | 200 to 5000 nM
7 | CC1(O)CCN(S(=O)(=O)c2ccc3c(-c4nc(NC5CCCNC5)ncc4C(F)(F)F)c[nH]c3c2)C1 (stereo not drawn) [Compound 366] | 20 to 200 nM | 1000 to 5000 nM | 200 to 5000 nM | 200 to 5000 nM | 200 to 5000 nM
8 | N#Cc1ccc2c(-c3nc(N[C@@H]4CNC[C@H](O)C4)ncc3C(F)(F)F)c[nH]c2c1 [Compound 370] | 20 to 200 nM | 100 to 1000 nM | ≥ 5000 nM | ≥ 5000 nM | 200 to 5000 nM
9 | N#Cc1ccc2c(-c3nc(NC4CNCCC4O)ncc3C(F)(F)F)c[nH]c2c1 (stereo not drawn) [Compound 355] | 20 to 200 nM | 100 to 1000 nM | ≥ 5000 nM | ≥ 5000 nM | 200 to 5000 nM
10 | CCN1CC(Nc2ncc(C(F)(F)F)c(-c3c[nH]c4cc(S(C)(=O)=O)ccc34)n2)CC(C)(C)C1 (stereo not drawn) [Compound 369] | 20 to 200 nM | 100 to 1000 nM | ≥ 5000 nM | ≥ 5000 nM | ≥ 5000 nM
11 | CC1(C)CNC[C@@H](Nc2ncc(C(F)(F)F)c(-c3c[nH]c4cc(S(C)(=O)=O)ccc34)n2)C1 [Compound 376] | 20 to 200 nM | 100 to 1000 nM | 200 to 5000 nM | ≥ 5000 nM | 200 to 5000 nM
12 | N#CC1CCN(C(=O)c2ccc3c(-c4nc(NC5CCCNC5)ncc4C(F)(F)F)c[nH]c3c2)C1 (stereo not drawn) [Compound 293] | < 20 nM | 100 to 1000 nM | 200 to 5000 nM | 200 to 5000 nM | 200 to 5000 nM
13 | COC1CCN(C(=O)c2ccc3c(-c4nc(NC5CCCNC5)ncc4C(F)(F)F)c[nH]c3c2)C1 (stereo not drawn) [Compound 280] | 20 to 200 nM | 100 to 1000 nM | ≥ 5000 nM | ≥ 5000 nM | 200 to 5000 nM
14 | CN1CCC[C@H](Nc2ncc(C(F)(F)F)c(-c3c[nH]c4cc(S(C)(=O)=O)ccc34)n2)C1 [Compound 364] | 20 to 200 nM | 1000 to 5000 nM | ≥ 5000 nM | ≥ 5000 nM | ≥ 5000 nM
15 | COCn1cc(-c2nc(NC3CCCNC3)ncc2C(F)(F)F)c2cccc(C#N)c21 (stereo not drawn) [Compound 295] | 20 to 200 nM | 1000 to 5000 nM | ≥ 5000 nM | ≥ 5000 nM | ≥ 5000 nM
16 | FC(F)(F)c1cnc(N[C@H]2CCCNC2)nc1-c1c[nH]c2cc(-c3nccs3)ccc12 [Compound 332] | < 20 nM | < 100 nM | 200 to 5000 nM | 200 to 5000 nM | 200 to 5000 nM
17 | O=S(=O)(c1ccc2c(-c3nc(NC4CCCNC4)ncc3C(F)(F)F)c[nH]c2c1)C(F)F (stereo not drawn) [Compound 375] | < 20 nM | 100 to 1000 nM | 200 to 5000 nM | 200 to 5000 nM | 200 to 5000 nM
18 | Cn1cc(-c2ccc3c(-c4nc(NC5CCCNC5)ncc4C(F)(F)F)c[nH]c3c2)ccc1=O (stereo not drawn) [Compound 321] | < 20 nM | 100 to 1000 nM | ≥ 5000 nM | ≥ 5000 nM | 200 to 5000 nM

Row | Structure (SMILES) | IC50 [1] | IC50 [2] | IC50 [3] | IC50 [4] | IC50 [5]
19 | O=C(c1ccc2c(-c3nc(NC4CCCNC4)ncc3C(F)(F)F)c[nH]c2c1)N1CC(O)C(F)(F)C1 (stereo not drawn) [Compound 308] | < 20 nM | 100 to 1000 nM | 200 to 5000 nM | 200 to 5000 nM | 200 to 5000 nM
20 | CCc1cnc(NC2CCCNC2)nc1-c1c[nH]c2c(S(=O)(=O)C(C)C)cccc12 (stereo not drawn) [Compound 356] | 20 to 200 nM | 100 to 1000 nM | ≥ 5000 nM | ≥ 5000 nM | ≥ 5000 nM
21 | CN(C)S(=O)(=O)c1ccc2c(-c3nc(NC4CCCNC4)ncc3C(F)(F)F)c[nH]c2c1 (stereo not drawn) [Compound 357] | < 20 nM | 1000 to 5000 nM | 200 to 5000 nM | 200 to 5000 nM | 200 to 5000 nM
22 | O=C(c1cccc(-c2ccc3c(-c4nc(NC5CCCNC5)ncc4C(F)(F)F)c[nH]c3c2)c1)N1CCCC1 (stereo not drawn) [Compound 340] | 20 to 200 nM | 1000 to 5000 nM | 200 to 5000 nM | 200 to 5000 nM | 200 to 5000 nM
23 | O=S(=O)(CF)c1ccc2c(-c3nc(NC4CCCNC4)ncc3C(F)(F)F)c[nH]c2c1 (stereo not drawn) [Compound 365] | < 20 nM | 100 to 1000 nM | 200 to 5000 nM | 200 to 5000 nM | 200 to 5000 nM
24 | OCc1cncc(-c2ccc3c(-c4nc(NC5CCCNC5)ncc4C(F)(F)F)c[nH]c3c2)c1 (stereo not drawn) [Compound 318] | < 20 nM | 100 to 1000 nM | 200 to 5000 nM | 200 to 5000 nM | 200 to 5000 nM
25 | CN(C)S(=O)(=O)c1cccc2c(-c3nc(NC4CCCNC4)ncc3C(F)(F)F)c[nH]c12 (stereo not drawn) [Compound 371] | < 20 nM | < 100 nM | 200 to 5000 nM | 200 to 5000 nM | 200 to 5000 nM
26 | CC1CCNCC1Nc1ncc(C(F)(F)F)c(-c2c[nH]c3ccccc23)n1 (stereo not drawn) [Compound 373] | 20 to 200 nM | 1000 to 5000 nM | ≥ 5000 nM | ≥ 5000 nM | ≥ 5000 nM
27 | CNC(=O)c1ccc2c(-c3nc(NC4CCCNC4)ncc3C(F)(F)F)c[nH]c2n1 (stereo not drawn) [Compound 297] | < 20 nM | < 100 nM | 200 to 5000 nM | 200 to 5000 nM | 200 to 5000 nM
28 | CC1(C)CCC(Nc2ncc(C(F)(F)F)c(-c3c[nH]c4cc(C#N)ccc34)n2)CN1 (stereo not drawn) [Compound 350] | 20 to 200 nM | 100 to 1000 nM | ≥ 5000 nM | ≥ 5000 nM | 200 to 5000 nM
29 | Cn1cc(-c2nc(NC3CCCNC3)ncc2C(F)(F)F)c2cccc(S(C)(=O)=O)c21 (stereo not drawn) [Compound 296] | 20 to 200 nM | 1000 to 5000 nM | ≥ 5000 nM | ≥ 5000 nM | ≥ 5000 nM
30 | FC(F)(F)c1cnc(NC2CCCNC2)nc1-c1c[nH]c2cc(-c3ccc4c(c3)OCCO4)ccc12 (stereo not drawn) [Compound 342] | 20 to 200 nM | 1000 to 5000 nM | ≥ 5000 nM | ≥ 5000 nM | 200 to 5000 nM
31 | N#Cc1ccc2c(-c3nc(N[C@H]4CCC5(CCC5)NC4)ncc3C(F)(F)F)c[nH]c2c1 [Compound 378] | 20 to 200 nM | 1000 to 5000 nM | ≥ 5000 nM | ≥ 5000 nM | ≥ 5000 nM
32 | [O-][S+](c1ccc2c(-c3nc(NC4CCCNC4)ncc3C(F)(F)F)c[nH]c2c1)C(F)F (stereo not drawn) [Compound 380] | < 20 nM | < 100 nM | 200 to 5000 nM | 200 to 5000 nM | 200 to 5000 nM
33 | O=C1CCc2ccc(-c3ccc4c(-c5nc(NC6CCCNC6)ncc5C(F)(F)F)c[nH]c4c3)cc2N1 (stereo not drawn) [Compound 334] | 20 to 200 nM | 100 to 1000 nM | 200 to 5000 nM | 200 to 5000 nM | 200 to 5000 nM
34 | FC(F)Sc1ccc2c(-c3nc(NC4CCCNC4)ncc3C(F)(F)F)c[nH]c2c1 (stereo not drawn) [Compound 374] | < 20 nM | < 100 nM | 200 to 5000 nM | 200 to 5000 nM | 20 to 200 nM
35 | O=c1[nH]cc(-c2ccc3c(-c4nc(NC5CCCNC5)ncc4C(F)(F)F)c[nH]c3c2)c(=O)[nH]1 (stereo not drawn) [Compound 333] | < 20 nM | 1000 to 5000 nM | ≥ 5000 nM | ≥ 5000 nM | 200 to 5000 nM
36 | FC(F)(F)c1cnc(N[C@H]2CCCNC2)nc1-c1c[nH]c2cc(-c3cccc(Oc4ccccc4)c3)ccc12 [Compound 341] | 200 to 5000 nM | 1000 to 5000 nM | ≥ 5000 nM | ≥ 5000 nM | ≥ 5000 nM
